Measured values: patent US9890192B2, “Targeted nitroxide agents” (University of Pittsburgh—of the Commonwealth System of …, priority 2008, dated 2018)

Assays:
[1] = system: mouse embryonic cells (MEC); test: EPR-based analysis of integration and reduction of nitroxide Gramicidin S-peptidyl conjugates in MECs; type: cell-based; details: 10 μM, whole cells, cytosol fractions
Description: Electron paramagnetic resonance (“EPR”) spectroscopy was used to monitor the cellular delivery of compounds 5a and 5b shown in FIG. 3 in mouse embryonic cells (“MEC”).
The following conditions were used during the EPR-based analysis of the integration and reduction of nitroxide Gramicidin S-peptidyl conjugates in MECs. The MECs at a concentration of 10 million MECs per mL were incubated with 10 μM of 4-AT and compound 5a, respectively. Recovered nitroxide radicals in whole cells, mitochondria, and cytosol fractions were resuspended in phosphate buffer saline (“PBS”) in the presence and absence, respectively, of 2 μM K3Fe(CN)6.

[2] = system: rats subjected to volume-controlled hemorrhagic shock; test: Survival of rats subjected to volume-controlled hemorrhagic shock; type: in vivo, rat; details: 2 μmol/kg intravenous; for survival vs vehicle: last 20 min of hemorrhage
Description: Survival of rats subjected to volume-controlled hemorrhagic shock. Following surgical preparation and a 5-min stabilization period to obtain baseline readings, rats were subjected to hemorrhagic shock. Bleeding was carried out in 2 phases.
Initially, 21 ml/kg of blood was withdrawn over 20 min. Immediately thereafter, an additional 12.5 ml/kg of blood was withdrawn over 40 min. Thus, hemorrhage occurred over a total period of 60 min and the total blood loss was 33.5 ml/kg or approximately 55% of the total blood volume. Rats were randomly assigned to receive XJB-5-131 (2 μmol/kg) or its vehicle, a 33:67 (v/v) mixture of DMSO and normal saline. XJB-5-131 solution or vehicle alone was administered as a continuous infusion during the last 20 min of the hemorrhage period. The total volume of fluid infused was 2.8 ml/kg and it was administered intravenously using a syringe pump (KD100, KD Scientific, New Hope, Pa.). […] At the end of the 6 hour observation period, animals that were still alive were euthanized with an overdose of KCl.
A total of sixteen rats were tested in this study. Rats were treated with 2.8 ml/kg of vehicle or the same volume of XJB-5-131 solution during the final 20 min of the bleeding protocol. The total dose of XJB-5-131 infused was 2 μmol/kg. Following profound hemorrhagic shock consistent with the protocol described above for the prior studies, thirteen survived for at least 60 min and received the full dose of either XJB-5-131 solution or the vehicle, a 33:67 (v/v) mixture of DMSO and normal saline. […] None of the between-group differences were statistically significant.

CC(C)C[C@@H](/C=C/[C@H](Cc1ccccc1)C(=O)N1CCC[C@H]1C(=O)N[C@H](C(=O)N[C@@H](CCCNC(=O)OCc1ccccc1)C(=O)NC1CC(C)(C)N([O])C(C)(C)C1)C(C)C)NC(=O)OC(C)(C)C [XJB-5-131]
EPR signals of nitroxide radicals; integration into cells and mitochondria [1]: concentrated in the mitochondria
rats surviving longer than 3 hours after completion of the hemorrhage protocol [2]: Three of the six
rats surviving the whole 6 hour post-bleeding observation period [2]: one
survival vs vehicle [2]: survived significantly longer
survival vs vehicle ([2]; listed as XJR-5-131): significantly prolonged the survival
